Measurements as given in US9133204B2, “5-membered heterocyclic amides and related compounds” (H. Lundbeck A/S, priority 2007, dated 2015).

The compounds below were run against T1, P2X7 receptor (Homo sapiens, UniProt Q99572) (assay: High throughput P2X7 calcium mobilization assay (Example 4A)). Conditions: SH-SY5Y cells; 50% decrease in fluorescence response of cells exposed to 80 μM BzATP; Table I.
T1 construct: host or cells: SH-SY5Y
T1 sequence (Q99572 1-595): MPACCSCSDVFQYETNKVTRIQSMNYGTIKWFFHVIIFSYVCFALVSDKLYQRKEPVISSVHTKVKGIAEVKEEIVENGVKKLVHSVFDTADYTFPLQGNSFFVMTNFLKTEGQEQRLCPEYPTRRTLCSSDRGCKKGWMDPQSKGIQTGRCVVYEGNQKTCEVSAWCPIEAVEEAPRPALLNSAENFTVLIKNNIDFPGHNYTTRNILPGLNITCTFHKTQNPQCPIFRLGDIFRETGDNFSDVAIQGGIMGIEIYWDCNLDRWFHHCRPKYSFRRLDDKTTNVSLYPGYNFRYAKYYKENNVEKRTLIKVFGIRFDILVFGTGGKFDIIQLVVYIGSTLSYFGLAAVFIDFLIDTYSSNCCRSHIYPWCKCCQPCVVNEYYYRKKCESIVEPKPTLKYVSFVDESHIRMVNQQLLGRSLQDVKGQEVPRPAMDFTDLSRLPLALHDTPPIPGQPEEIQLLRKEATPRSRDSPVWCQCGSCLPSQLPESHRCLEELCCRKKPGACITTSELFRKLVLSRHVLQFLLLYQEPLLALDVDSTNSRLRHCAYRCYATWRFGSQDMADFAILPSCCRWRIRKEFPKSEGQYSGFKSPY
Assay type: cell-based
Outline: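 Calcium mobilization read by FLIPR as peak fluorescence over 2 min after adding BzATP to a final 80 μM (about EC50). Beforehand, Fluo-4 AM-loaded SH-SY5Y cells sat 1 h at room temperature with compound at 1–2500 nM in pH 7.4 sucrose/HEPES buffer; signal minus no-agonist wells.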

| IC50 [nM] | Compound |
| --- | --- |
| ≤ 2000 | Cc1c(N)ncnc1-n1cc(C(=O)NCC23CC4CC(CC(C4)C2)C3)c(C(F)(F)F)n1 [Compound 128, N-(adamantan-1-ylmethyl)-1-(6-amino-5-methylpyrimidin-4-yl)-3-(trifluoromethyl)-1H-pyrazole-4-carboxamide] |
| ≤ 2000 | Nc1ccnc(-n2cc(C(=O)NCC34CC5CC(CC(C5)C3)C4)c(C(F)(F)F)n2)n1 [Compound 130, N-(adamantan-1-ylmethyl)-1-(4-aminopyrimidin-2-yl)-3-(trifluoromethyl)-1H-pyrazole-4-carboxamide] |
| ≤ 2000 | Nc1cccnc1-n1cc(C(=O)NCC23CC4CC(CC(C4)C2)C3)c(C(F)(F)F)n1 [Compound 131, N-(adamantan-1-ylmethyl)-1-(3-aminopyridin-2-yl)-3-(trifluoromethyl)-1H-pyrazole-4-carboxamide] |
| ≤ 2000 | Cc1cccnc1-n1cc(C(=O)NCC23CC4CC(CC(C4)C2)C3)c(C(F)(F)F)n1 [Compound 132, N-(adamantan-1-ylmethyl)-1-(3-methylpyridin-2-yl)-3-(trifluoromethyl)-1H-pyrazole-4-carboxamide] |
| ≤ 2000 | O=C(NCC12CC3CC(CC(C3)C1)C2)c1c[nH]nc1C(F)(F)F [Compound 134, N-(adamantan-1-ylmethyl)-3-(trifluoromethyl)-1H-pyrazole-4-carboxamide] |
| ≤ 2000 | O=C(NCC12CC3CC(CC(C3)C1)C2)c1cn(-c2nccs2)nc1C(F)(F)F [Compound 135, N-(adamantan-1-ylmethyl)-1-(1,3-thiazol-2-yl)-3-(trifluoromethyl)-1H-pyrazole-4-carboxamide] |
| ≤ 2000 | O=C(NCC12CC3CC(CC(C3)C1)C2)c1cn(-c2cnccn2)nc1C(F)(F)F [Compound 136, N-(adamantan-1-ylmethyl)-1-pyrazin-2-yl-3-(trifluoromethyl)-1H-pyrazole-4-carboxamide] |
| ≤ 2000 | Nc1cncc(-n2cc(C(=O)NCC34CC5CC(CC(C5)C3)C4)c(C(F)(F)F)n2)n1 [Compound 137, N-(adamantan-1-ylmethyl)-1-(6-aminopyrazin-2-yl)-3-(trifluoromethyl)-1H-pyrazole-4-carboxamide] |

The remaining lines, values behind:

| Compound | IC50 [nM] |
| --- | --- |
| O=C(NCC12CC3CC(CC(C3)C1)C2)c1cn(-c2ncccn2)nc1C(F)(F)F [Compound 129, N-(adamantan-1-ylmethyl)-1-pyrimidin-2-yl-3-(trifluoromethyl)-1H-pyrazole-4-carboxamide] | ≤ 2000 |
| CC(C)c1nn(-c2nccs2)cc1C(=O)NCC12CC3CC(CC(C3)C1)C2 [Compound 133, N-(adamantan-1-ylmethyl)-3-isopropyl-1-(1,3-thiazol-2-yl)-1H-pyrazole-4-carboxamide] | ≤ 2000 |
| Cc1ccc(C2(CNC(=O)c3cn(-c4ncc(F)c(N)n4)nc3C(F)(F)F)CCCCC2)cn1 [Compound 138, 1-(4-amino-5-fluoropyrimidin-2-yl)-N-{[1-(6-methylpyridin-3-yl)cyclohexyl]methyl}-3-(trifluoromethyl)-1H-pyrazole-4-carboxamide] | ≤ 2000 |
| CC(C)CC(CNC(=O)c1cn(-c2ncc(F)c(N)n2)nc1C(F)(F)F)c1cccnc1 (centres unmarked) [Compound 139, 1-(4-amino-5-fluoropyrimidin-2-yl)-N-(4-methyl-2-pyridin-3-ylpentyl)-3-(trifluoromethyl)-1H-pyrazole-4-carboxamide] | ≤ 2000 |
| CC(C)CC(CNC(=O)c1cn(-c2ncc(F)c(N)n2)nc1C(F)(F)F)c1ccc(Cl)cc1 (centres unmarked) [Compound 140, 1-(4-amino-5-fluoropyrimidin-2-yl)-N-[2-(4-chlorophenyl)-4-methylpentyl]-3-(trifluoromethyl)-1H-pyrazole-4-carboxamide] | ≤ 2000 |
| Nc1nc(-n2cc(C(=O)NCC3(c4ccc(Cl)cc4)CCCCC3)c(C(F)(F)F)n2)ncc1F [Compound 141, 1-(4-amino-5-fluoropyrimidin-2-yl)-N-{[1-(4-chlorophenyl)cyclohexyl]methyl}-3-(trifluoromethyl)-1H-pyrazole-4-carboxamide] | ≤ 2000 |
